Tests used:
[1] = Plasma protein binding rate, rapid equilibrium dialysis, human plasma; format: in vitro ADME; conditions: 37°C
Method: (§1) In brief, the unbound drugs (or references) were separated from plasma (human and rat) in a 96-well plate with a semipermeable membrane through which only unbound drug can permeate. The equilibrium unit was sealed and incubated at 37°C in a mixer at 100 rpm for 4 h.
(§2) Then, 50 ng/ml of midazolam and 50 ng/ml of tolbutamide (in acetonitrile) were used as IS.
(§3) After reaching equilibrium, the concentrations of the samples in both the plasma and the buffer compartment were determined. According to the specification, the resultant supernatant was collected, properly diluted by distilled water, vortexed for 10 min, and finally analyzed using LC-MS/MS. All the samples (PDG, PINL, diclofenac, and propranolol) for detection were prepared in duplicate.
(§4) The concentrations of the samples were determined by internal standard methods, in which the data were acquired and analyzed by Analyst 1.6.1 software station (AB Sciex Corporation, Boston, MA, United States). The equation of plasma protein binding rate is calculated as follows: Free drug rate (%)=CB/CA×100% (3) Plasma protein binding rate (%)=100%−Free drug rate(%) (4) C B is the drug concentration in dialysis chamber, and C A is the drug concentration in the sample chamber.

in vitro [2] = conditions: PAMPA
Method: Verapamil and digoxin solutions, used as reference, prepared in the same manner as the test drugs. Tolbutamide dissolved with acetonitrile (200 ng/ml) was used as IS.
The resultant supernatants were determined by LC-MS/MS. The specific assay conditions are shown in Support Materials (Supplementary Table S2).

in vitro [3] = conditions: microsomes
Method: Then, this incubation plate containing mixed solution and NADPH regeneration system was agitated on a plate shaker at 100 rpm and pre-incubated at 37°C for 5 min. Subsequently, 300 μL of precooled quenching solution was added to each well of another deep-well plate (quench plate), which was cooled on ice. The solution in the incubation plate was transferred into the well of the quench plate as the samples in 0 min before it was mixed with another 20 µL of NADPH regeneration solution in the wells.
The incubation plate was incubated at 37°C for 0, 10, 30, and 90 min. At each time point, 100 μL of the supernatant in the incubation plate was removed from each well, quenched immediately, transferred to the wells of the ice-cold quench plate, and vortexed for 5 min. Additionally, an equal volume of pre-warmed fresh regeneration solution was added to the incubation plate for compensation after every withdrawal. […] Each test was operated in duplicate. The determination conditions of LC-MS/MS are shown in Support Materials (Supplementary Table S4).
The in vitro T1/2 was determined by converting the analyte/IS peak area ratios to percentage of drug remaining using the initial peak (t = 0 min) area ratio values as 100%.

[4] = Plasma protein binding rate, rapid equilibrium dialysis, rat plasma; format: in vitro ADME; conditions: 37°C
Method: as §1, §2, §3, §4

[5] = Kinetic solubility test in PBS; format: physicochemical; conditions: phosphate-buffer saline (PBS)
Method: Internal standard (IS) solutions (propranolol and tolbutamide) were dissolved by acetonitrile (50 ng/ml propranolol + 200 ng/ml tolbutamide).
The sample solutions were analyzed using LC-MS/MS. All the samples (test samples and references) for detection were prepared in duplicate. The conditions for LC-MS/MS are shown in Support Materials (Supplementary Table S1).

COc1cc(C2OCC3C(c4ccc(OC5OC(CO)C(O)C(O)C5O)c(OC)c4)OCC23)ccc1OC1OC(CO)C(O)C(O)C1O (single isomer, unassigned; (+)) [PDG, (+)-1-pinoresinol 4,4′-di-O-β-D-glucopyranoside]
fraction unbound at 4 h, 10 µM [1]: 0.548 | Papp at 18000 s (in vitro [2]): 0.002 ×10⁻⁶ cm/s | Peff (in vitro [2]; 18000 s): 0.02 cm/s, ×10^–7 | half-life (in vitro [3]; human): 16.7 h | half-life at 5 µM (in vitro [3]; human): 16.7 h | microsomal CLint (in vitro [3]; human): 1.4 µL/min/mg | half-life (in vitro [3]; rat): 17.3 h | half-life at 5 µM (in vitro [3]; rat): 17.3 h | microsomal CLint (in vitro [3]; rat): 1.3 µL/min/mg | fraction unbound at 4 h, 10 µM [4]: 0.623 | solubility kinetic ([5]; aqueous buffer, kinetic from dmso stock, PBS (100 mM, pH 7.4)): 99.5 ± 14 µg/mL | solubility kinetic ([5]; aqueous buffer, kinetic from dmso stock, PBS (pH 7.4), μg/ml value expressed in µM): ~146 µM | solubility kinetic ([5]; PBS (pH 7.4), μg/ml value expressed in µM): > 100 µM
